Like-named read-outs stand apart in the source and are kept apart here. A value given as a limit tells only on which side of the number the result lay.

What all share (format): cell-based
In assay [1] the test system is microfilariae of Dirofilaria immitis. Briefly: Dirofilaria immitis, Microfilaria (DiMf) In Vitro Assay. Conditions: Dirofilaria immitis, 72 h, read-out: DiMf MED, Minimum Effective Dose, D. immitis microfilariae motility, in vitro.
Assay [2] deals with third stage larvae of Haemonchus contortus. Put plainly: Haemonchus contortus, Larvae Stage 3 (HcL3) In Vitro Assay. Conditions: Haemonchus contortus, 96 h.
Another assay deals with D. immitis L4 larvae. Briefly: Dirofilaria immitis, L4 Stage (DiL4) In Vitro Assay. Particulars: for minimal effective concentration: Dirofilaria immitis, 72 h, read-out: DiL4 MED, Minimum Effective Dose, D. immitis L4 larvae motility, in vitro; for DiMf/DiL4: larval stage selectivity, ratio of DiMf MED to DiL4 MED.
The mark [3] stands for this setting: read-out: HcL3 MED, Haemonchus contortus third stage larvae in vitro, class mark appended to the Ex # in Table 3.
[4] abbreviates: read-out: HcL3 MED, Minimum Effective Dose, H. contortus third stage larvae, approximately 96 hours.
Setting [5] is: read-out: HcL3 MED, approximately 96 hours incubation, multiple-resistant field isolate.

For `CC(C)C[C@H]1C(=O)O[C@H](Cc2ccc(Cc3sccc3Cl)cc2)C(=O)N(C)[C@@H](CC(C)C)C(=O)O[C@H](C)C(=O)N(C)[C@@H](CC(C)C)C(=O)O[C@H](Cc2ccc(Cc3sccc3Cl)cc2)C(=O)N(C)[C@@H](CC(C)C)C(=O)O[C@H](C)C(=O)N1C` [Example 3-87, (3S,6R,9S,12R,15S,18R,21S,24R)-6,18-bis(4-((3-chlorothiophen-2-yl)methyl)benzyl)-3,9,15,21-tetraisobutyl-4,10,12,16,22,24-hexamethyl-1,7,13,19-tetraoxa-4,10,16,22-tetraazacyclotetracosan-2,5,8,11,14,17,20,23-octaone], the minimal effective concentration in assay [1] was 0.1 µM; in assay [2] (setting [3]), < 1 µM; in assay [2] (setting [4]) it was 0.3 µM; in assay [2] (setting [5]), ≤ 1 µM; with D. immitis L4 larvae, 0.0003 µM. Besides, in the assay on D. immitis L4 larvae, the DiMf/DiL4 turned out to be 333.

Take `COc1ccsc1Cc1ccc(C[C@H]2OC(=O)[C@H](CC(C)C)N(C)C(=O)[C@@H](C)OC(=O)[C@H](CC(C)C)N(C)C(=O)[C@@H](Cc3ccc(Cc4sccc4OC)cc3)OC(=O)[C@H](CC(C)C)N(C)C(=O)[C@@H](C)OC(=O)[C@H](CC(C)C)N(C)C2=O)cc1` [Example 3-110, (3S,6R,9S,12R,15S,18R,21S,24R)-3,9,15,21-tetraisobutyl-6,18-bis(4-((3-methoxythiophen-2-yl)methyl)benzyl)-4,10,12,16,22,24-hexamethyl-1,7,13,19-tetraoxa-4,10,16,22-tetraazacyclotetracosan-2,5,8,11,14,17,20,23-octaone]: the minimal effective concentration is 0.03 µM in assay [1], > 100 µM in assay [2] (setting [4]) and 0.0001 µM in the assay with D. immitis L4 larvae. Besides, the DiMf/DiL4 in the assay with D. immitis L4 larvae worked out at 300.

For the molecule `CC(C)C[C@H]1C(=O)O[C@H](Cc2ccc(Cc3scnc3Cl)cc2)C(=O)N(C)[C@@H](CC(C)C)C(=O)O[C@H](C)C(=O)N(C)[C@@H](CC(C)C)C(=O)O[C@H](Cc2ccc(Cc3scnc3Cl)cc2)C(=O)N(C)[C@@H](CC(C)C)C(=O)O[C@H](C)C(=O)N1C` [Example 3-112, (3S,6R,9S,12R,15S,18R,21S,24R)-6,18-bis(4-((4-chlorothiazol-5-yl)methyl)benzyl)-3,9,15,21-tetraisobutyl-4,10,12,16,22,24-hexamethyl-1,7,13,19-tetraoxa-4,10,16,22-tetraazacyclotetracosan-2,5,8,11,14,17,20,23-octaone], the minimal effective concentration is 0.001 µM in assay [1]; < 1 µM in assay [2] (setting [3]); 1 µM in assay [2] (setting [4]); ≤ 1 µM in assay [2] (setting [5]); 3e-05 µM in the assay with D. immitis L4 larvae. In addition, the DiMf/DiL4 in the assay on D. immitis L4 larvae is 33.3.

Turning to `COc1ncc(Cc2ccc(C[C@H]3OC(=O)[C@H](CC(C)C)N(C)C(=O)[C@@H](C)OC(=O)[C@H](CC(C)C)N(C)C(=O)[C@@H](Cc4ccc(Cc5cnc(OC)c(F)c5)cc4)OC(=O)[C@H](CC(C)C)N(C)C(=O)[C@@H](C)OC(=O)[C@H](CC(C)C)N(C)C3=O)cc2)cc1F` [Example 3-118, (3S,6R,9S,12R,15S,18R,21S,24R)-6,18-bis(4-((5-fluoro-6-methoxypyridin-3-yl)methyl)benzyl)-3,9,15,21-tetraisobutyl-4,10,12,16,22,24-hexamethyl-1,7,13,19-tetraoxa-4,10,16,22-tetraazacyclotetracosan-2,5,8,11,14,17,20,23-octaone], the minimal effective concentration in assay [1] was 0.1 µM; in assay [2] (setting [4]), > 100 µM; in the assay on D. immitis L4 larvae it was 0.001 µM. Also, the DiMf/DiL4 with D. immitis L4 larvae was found to be 100.

Consider `Cc1nnsc1Cc1ccc(C[C@H]2OC(=O)[C@H](CC(C)C)N(C)C(=O)[C@@H](C)OC(=O)[C@H](CC(C)C)N(C)C(=O)[C@@H](Cc3ccc(Cc4snnc4C)cc3)OC(=O)[C@H](CC(C)C)N(C)C(=O)[C@@H](C)OC(=O)[C@H](CC(C)C)N(C)C2=O)cc1` [Example 3-120, (3S,6R,9S,12R,15S,18R,21S,24R)-3,9,15,21-tetraisobutyl-4,6,10,16,18,22-hexamethyl-12,24-bis(4-((4-methyl-1,2,3-thiadiazol-5-yl)methyl)benzyl)-1,7,13,19-tetraoxa-4,10,16,22-tetraazacyclotetracosan-2,5,8,11,14,17,20,23-octaone], for which the minimal effective concentration is 0.0004 µM in assay [1]; < 1 µM in assay [2] (setting [3]); 1 µM in assay [2] (setting [4]); ≤ 1 µM in assay [2] (setting [5]); 0.0001 µM with D. immitis L4 larvae. Besides, in the assay with D. immitis L4 larvae, the DiMf/DiL4 worked out at 4.

As for `COc1ccc(Cc2ccc(C[C@H]3OC(=O)[C@H](CC(C)C)N(C)C(=O)[C@@H](C)OC(=O)[C@H](CC(C)C)N(C)C(=O)[C@@H](Cc4ccc(Cc5ccc(OC)nc5C)cc4)OC(=O)[C@H](CC(C)C)N(C)C(=O)[C@@H](C)OC(=O)[C@H](CC(C)C)N(C)C3=O)cc2)c(C)n1` [Example 3-121, (3S,6R,9S,12R,15S,18R,21S,24R)-3,9,15,21-tetraisobutyl-6,18-bis(4-((6-methoxy-2-methylpyridin-3-yl)methyl)benzyl)-4,10,12,16,22,24-hexamethyl-1,7,13,19-tetraoxa-4,10,16,22-tetraazacyclotetracosan-2,5,8,11,14,17,20,23-octaone], the minimal effective concentration in assay [1] is 0.003 µM; in assay [2] (setting [3]) it was 1 to 3.3 µM; in assay [2] (setting [4]), 1.8 µM; in the assay with D. immitis L4 larvae, 5e-05 µM. In addition, in the assay on D. immitis L4 larvae, the DiMf/DiL4 was 60.

Take `Cc1csc(Cc2ccc(C[C@H]3OC(=O)[C@H](CC(C)C)N(C)C(=O)[C@@H](C)OC(=O)[C@H](CC(C)C)N(C)C(=O)[C@@H](Cc4ccc(Cc5cc(C)cs5)cc4)OC(=O)[C@H](CC(C)C)N(C)C(=O)[C@@H](C)OC(=O)[C@H](CC(C)C)N(C)C3=O)cc2)c1` [Example 3-124, (3S,6R,9S,12R,15S,18R,21S,24R)-3,9,15,21-tetraisobutyl-4,6,10,16,18,22-hexamethyl-12,24-bis(4-((4-methylthiophen-2-yl)methyl)benzyl)-1,7,13,19-tetraoxa-4,10,16,22-tetraazacyclotetracosan-2,5,8,11,14,17,20,23-octaone]: the minimal effective concentration was 0.1 µM in assay [1]; < 1 µM in assay [2] (setting [3]); 0.3 µM in assay [2] (setting [4]); ≤ 1 µM in assay [2] (setting [5]); 0.001 µM in the assay on D. immitis L4 larvae. The DiMf/DiL4 in the assay with D. immitis L4 larvae is listed as 100.

Take `CC(C)C[C@H]1C(=O)O[C@H](Cc2ccc(Cc3sccc3Br)cc2)C(=O)N(C)[C@@H](CC(C)C)C(=O)O[C@H](C)C(=O)N(C)[C@@H](CC(C)C)C(=O)O[C@H](Cc2ccc(Cc3sccc3Br)cc2)C(=O)N(C)[C@@H](CC(C)C)C(=O)O[C@H](C)C(=O)N1C` [Example 3-125, (3S,6R,9S,12R,15S,18R,21S,24R)-6,18-bis(4-((3-bromothiophen-2-yl)methyl)benzyl)-3,9,15,21-tetraisobutyl-4,10,12,16,22,24-hexamethyl-1,7,13,19-tetraoxa-4,10,16,22-tetraazacyclotetracosan-2,5,8,11,14,17,20,23-octaone]: the minimal effective concentration is 0.03 µM in assay [1], > 100 µM in assay [2] (setting [4]) and < 0.0002 µM in the assay on D. immitis L4 larvae. In addition, the DiMf/DiL4 in the assay on D. immitis L4 larvae was >150.

Turning to `CC(C)C[C@H]1C(=O)O[C@H](Cc2ccc([C@H](O)c3sccc3Br)cc2)C(=O)N(C)[C@@H](CC(C)C)C(=O)O[C@H](C)C(=O)N(C)[C@@H](CC(C)C)C(=O)O[C@H](Cc2ccc([C@@H](O)c3sccc3Br)cc2)C(=O)N(C)[C@@H](CC(C)C)C(=O)O[C@H](C)C(=O)N1C` [Example 3-132, (3S,6R,9S,12R,15S,18R,21S,24R)-6-(4-((R)-(3-bromothiophen-2-yl)(hydroxy)methyl)benzyl)-18-(4-((S)-(3-bromothiophen-2-yl)(hydroxy)methyl)benzyl)-3,9,15,21-tetraisobutyl-4,10,12,16,22,24-hexamethyl-1,7,13,19-tetraoxa-4,10,16,22-tetraazacyclotetracosan-2,5,8,11,14,17,20,23-octaone], the minimal effective concentration in assay [1] is 0.01 µM; in assay [2] (setting [4]) it was > 10 µM; in the assay with D. immitis L4 larvae, 0.0004 µM. In the assay with D. immitis L4 larvae, the DiMf/DiL4 is 25.

Take `COc1cc(C)c(Cc2ccc(C[C@H]3OC(=O)[C@H](CC(C)C)N(C)C(=O)[C@@H](C)OC(=O)[C@H](CC(C)C)N(C)C(=O)[C@@H](Cc4ccc(Cc5cnc(OC)cc5C)cc4)OC(=O)[C@H](CC(C)C)N(C)C(=O)[C@@H](C)OC(=O)[C@H](CC(C)C)N(C)C3=O)cc2)cn1` [Example 3-133, (3S,6R,9S,12R,15S,18R,21S,24R)-3,9,15,21-tetraisobutyl-6,18-bis(4-((6-methoxy-4-methylpyridin-3-yl)methyl)benzyl)-4,10,12,16,22,24-hexamethyl-1,7,13,19-tetraoxa-4,10,16,22-tetraazacyclotetracosan-2,5,8,11,14,17,20,23-octaone]: the minimal effective concentration in assay [1] worked out at 0.02 µM; in assay [2] (setting [4]) it was 57 µM; in the assay with D. immitis L4 larvae it was 0.0003 µM. Besides, the DiMf/DiL4 in the assay with D. immitis L4 larvae is 66.7.

For `CC(C)C[C@H]1C(=O)O[C@H](Cc2ccc(Cc3cnco3)cc2)C(=O)N(C)[C@@H](CC(C)C)C(=O)O[C@H](C)C(=O)N(C)[C@@H](CC(C)C)C(=O)O[C@H](Cc2ccc(Cc3cnco3)cc2)C(=O)N(C)[C@@H](CC(C)C)C(=O)O[C@H](C)C(=O)N1C` [Example 3-148, (3S,6R,9S,12R,15S,18R,21S,24R)-3,9,15,21-tetraisobutyl-4,6,10,16,18,22-hexamethyl-12,24-bis(4-(oxazol-5-ylmethyl)benzyl)-1,7,13,19-tetraoxa-4,10,16,22-tetraazacyclotetracosan-2,5,8,11,14,17,20,23-octaone], the minimal effective concentration in assay [1] is 0.001 µM; in assay [2] (setting [3]) it was 1 to 3.3 µM; in assay [2] (setting [4]) it was 3 µM; in the assay on D. immitis L4 larvae, 0.0003 µM. The DiMf/DiL4 in the assay on D. immitis L4 larvae was 3.3.

The record behind these values is US11771738B2 (Zoetis Services LLC, priority 2018, dated 2023).
